Patent publication US8664391B2, “Amide compounds as boosters of antivirals” (Janssen R&D Ireland Ltd, priority 2008, dated 2014)
Read-outs that look alike come from different tables or passages of the source.

How the values were obtained:
in vitro = in vitro ADME, human; details: pH 7.4
From the text: Assay 3: Metabolic Stability of Test Compounds (HLM15′)
Sub-cellular tissue preparations are made according to Gorrod et al. (Xenobiotica, 5, pp. 453-462 (1975)) by centrifugal separation after mechanical homogenization of tissue. Human liver tissue is rinsed in ice-cold 0.1 M Tris-HCl (pH 7.4) buffer to wash excess blood. Tissue is then blotted dry, weighed and chopped coarsely using surgical scissors. The tissue pieces are homogenized in 3 volumes of ice-cold 0.1 M phosphate buffer (pH 7.4) using either a Potter-S (Braun, Italy) equipped with a Teflon pestle or a Sorvall Omni-Mix homogenizer, for 7×10 sec. In both cases, the vessel is kept in/on ice during the homogenization process. Tissue homogenates are centrifuged at 9000×g for 20 min at 4° C. using a Sorvall centrifuge or Beckman Ultracentrifuge. The resulting supernatant can be stored at −80° C. and is designated ‘S9’. The S9 fraction is centrifuged at 100,000×g for 60 min at 4° C. using a Beckman ultracentrifuge. The resulting supernatant is carefully aspirated, aliquoted and designated ‘cytosol’. The pellet is re-suspended in 0.1 M phosphate buffer (pH 7.4) in a final volume of 1 ml per 0.5 g original tissue weight and designated ‘microsomes’. All sub-cellular fractions are aliquoted, immediately frozen in liquid nitrogen and stored at −80° C. until use.
Heat-inactivated (10 min at 95° C.) ‘S9’ or microsomes were used for blank experiments. Reaction mixtures were incubated at 37° C. for 5 min, after which the reaction was started by the addition of 0.8 mM β-NADP. The reaction was incubated for 0 or 15 min. Next, the reaction was stopped by addition of 2 volumes of DMSO (or acetonitrile). Samples were centrifuged (10 min, 900×g) and analyzed by LC-MS.

CYP2D6 = biological target: T1, CYP2D6 (Homo sapiens, UniProt P10635); assay: CYP450 inhibition, fluorescent substrate assay, CYP2D6; type: biochemical; details: substrate AMMC 3 μM, read-out: 2D6-AMMC % inh.
T1 construct: host or cells: E. coli
Experimental: (§1) Assay 4: CYP450 Inhibition […] This fluorescent molecule was measured using a fluorescent plate reader (Victor2 (Wallac) or Fluoroskan (Labsystems)). Compounds inhibiting the enzymatic reaction will result in a decrease of fluorescent signal. CYP P450 enzymes were prepared in house or commercially bought and stored at −80° C. [table] The assay was performed in black 96 well Costar plates. Test compounds were added to a CYP P450 enzyme solution in the presence of an NADPH generating system. After 5 min of preincubation at 37° C., the freshly prepared, phosphate buffered (pH 7.4) substrate solution was added. Known CYP P450 inhibitors were used as positive controls, negative controls were run without CYP P450 enzyme. For final reaction mixture concentrations, see Table 6. […] Then, the reaction was stopped by the addition of 200 μl acetonitrile, and the fluorescent signal was detected. [table] […] Inhibition of TMC114 Metabolisation

CYP2C19 = biological target: T2, CYP2C19 (Homo sapiens, UniProt P33261); assay: CYP450 inhibition, fluorescent substrate assay, CYP2C19; type: biochemical; details: substrate CEC 25 μM, read-out: 2C19-CEC % inh.
T2 construct: host or cells: E. coli
Experimental: as §1

[1] = test system: wild-type HIV-1 IIIB strain; assay: Antiviral activity in MT4 LTR-EGFP cellular assay; type: cell-based; details: read-out: Antiviral Activity IIIB pEC50 (converted)
Experimental: (§2) Assay 1 &2: Antiviral Activity/Toxicity
The compounds of the present invention were tested for antiviral activity in a cellular assay, which was performed according to the following procedure.
The human T-cell line MT4 is engineered with Green Fluorescent Protein (GFP) and an HIV-specific promoter, HIV-1 long terminal repeat (LTR). This cell line is designated MT4 LTR-EGFP, and can be used for the in vitro evaluation of anti-HIV activity of investigational compounds. In HIV-1 infected cells, the Tat protein is produced which upregulates the LTR promotor and finally leads to stimulation of the GFP reporter production, allowing measuring ongoing HIV-infection fluorometrically.
(§3) The ratio of CC50 to EC50 is defined as the selectivity index (SI) and is an indication of the selectivity of the anti-HIV activity of the inhibitor. The ultimate monitoring of HIV-1 infection and cytotoxicity is done using a scanning microscope. Image analysis allows very sensitive detection of viral infection. Measurements are done before cell necrosis, which usually takes place about five days after infection, in particular measurements are performed three days after infection.
A pEC50 value corresponds to −log10(EC50). A pCC50 value corresponds to −log10(CC50).

CYP1A2 = biological target: T3, CYP1A2 (Homo sapiens, UniProt P05177); assay: CYP450 inhibition, fluorescent substrate assay, CYP1A2; type: biochemical; details: substrate CEC 5 μM, read-out: 1A2-CEC % inh.
T3 construct: host or cells: E. coli
T3 sequence (P05177 1-516): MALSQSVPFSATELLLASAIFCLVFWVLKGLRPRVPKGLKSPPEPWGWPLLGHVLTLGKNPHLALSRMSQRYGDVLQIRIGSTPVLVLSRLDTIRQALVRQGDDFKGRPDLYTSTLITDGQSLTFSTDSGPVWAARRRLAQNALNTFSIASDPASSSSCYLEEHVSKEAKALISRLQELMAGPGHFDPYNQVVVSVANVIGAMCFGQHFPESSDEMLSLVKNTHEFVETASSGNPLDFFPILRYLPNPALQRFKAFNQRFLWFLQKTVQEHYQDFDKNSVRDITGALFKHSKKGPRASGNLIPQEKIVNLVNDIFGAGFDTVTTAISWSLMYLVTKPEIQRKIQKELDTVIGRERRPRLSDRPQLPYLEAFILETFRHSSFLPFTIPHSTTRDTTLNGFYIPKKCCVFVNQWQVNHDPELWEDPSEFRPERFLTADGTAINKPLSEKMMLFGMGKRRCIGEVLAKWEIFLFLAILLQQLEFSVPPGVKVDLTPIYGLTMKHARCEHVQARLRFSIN
Experimental: as §1

CYP2C9 = CYP2C9 (Homo sapiens, UniProt P11712); assay: CYP450 inhibition, fluorescent substrate assay, CYP2C9; type: biochemical
Experimental: as §1

[2] = Cytotoxicity in mock-infected MT4 CMV-EGFP cells; type: cell-based; details: human, pCC50 = -log10(CC50), read-out: Toxicity MT4 pCC50 (converted)
From the text: as §2
Analogously, MT4 cells are engineered with GFP and the constitutional cytomegalovirus (CMV) promotor. This cell line is designated MT4 CMV-EGFP, and can be used for the in vitro evaluation of cytotoxicity of investigational compounds. In this cell line, GFP levels are comparably to those of infected MT4 LTR-EGFP cells. Cytotoxic investigational compounds reduce GFP levels of mock-infected MT4 CMV-EGFP cells.
as §3, with “Effective concentration values such as 50% effective concentration (EC50) can be determined and are usually expressed in μM. An EC50 value is defined as the concentration of test compound that reduces the fluorescence of HIV-infected cells by 50%. The 50% cytotoxic concentration (CC50 in μM) is defined as the concentration of test compound that reduces fluorescence of the mock-infected cells by 50%. The ratio” for “The ratio”
Table 2 lists pEC50 values against the wild-type HIV-1 IIIB strain as well as pCC50 values for a selected number of compounds of the invention. A pEC50 value corresponds to −log10(EC50). A pCC50 value corresponds to −log10(CC50).

CYP3A4 = biological target: T4, CYP3A4 (Homo sapiens, UniProt P08684); assay: CYP450 inhibition, fluorescent substrate assay, CYP3A4; type: biochemical; details: for inhibition at 10 min, 10 μM: substrate DBF 1 μM, read-out: 3A4-DBF % inh.
T4 construct: host or cells: E. coli
Experimental: as §1

[3] = human liver microsomes 1 mg/ml, 5 μM test compound, 15 min, 37° C., read-out: % recovery HLM15
[4] = E. coli expressed CYP2D6, pH 7.4, probe AMMC (3 μM), 10 μM test compound
[5] = E. coli expressed CYP2C19, pH 7.4, probe CEC (25 μM), 10 μM test compound
[6] = Human immunodeficiency virus 1, IIIB, 72 h
[7] = E. coli expressed CYP1A2, pH 7.4, probe CEC (5 μM), 10 μM test compound
[8] = pH 7.4, 10 μM test compound, substrate MFC 200 μM, 30 min, read-out: 2C9-MFC % inh.
[9] = E. coli expressed CYP3A4, pH 7.4, probe BFC (150 μM), 10 μM test compound, substrate BFC 150 μM, read-out: 3A4-BFC % inh.
[10] = E. coli expressed CYP3A4, pH 7.4, probe BQ (60 μM), 10 μM test compound, substrate BQ 60 μM, read-out: 3A4-BQ % inh.
[11] = E. coli expressed CYP3A4, pH 7.4, probe DBF (1 μM), 10 μM test compound
[12] = Human immunodeficiency virus 1, 72 h, wild-type HIV-1 IIIB, MT4 LTR-EGFP cells, three days after infection, pEC50 = -log10(EC50)

T1 sequence (P10635 whole entry): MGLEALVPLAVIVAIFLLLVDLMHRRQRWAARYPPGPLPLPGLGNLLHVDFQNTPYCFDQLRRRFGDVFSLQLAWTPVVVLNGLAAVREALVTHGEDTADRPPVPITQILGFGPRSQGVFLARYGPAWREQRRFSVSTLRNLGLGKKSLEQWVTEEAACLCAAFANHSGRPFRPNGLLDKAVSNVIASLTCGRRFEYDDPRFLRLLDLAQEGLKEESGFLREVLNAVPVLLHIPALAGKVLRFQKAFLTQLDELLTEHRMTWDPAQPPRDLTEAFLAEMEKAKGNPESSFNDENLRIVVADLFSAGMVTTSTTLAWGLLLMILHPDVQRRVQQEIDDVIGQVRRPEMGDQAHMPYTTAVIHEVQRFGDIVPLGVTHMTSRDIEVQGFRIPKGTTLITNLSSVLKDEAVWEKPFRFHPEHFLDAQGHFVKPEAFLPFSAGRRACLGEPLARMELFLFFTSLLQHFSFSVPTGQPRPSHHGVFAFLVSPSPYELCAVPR
T4 sequence (P08684 whole entry): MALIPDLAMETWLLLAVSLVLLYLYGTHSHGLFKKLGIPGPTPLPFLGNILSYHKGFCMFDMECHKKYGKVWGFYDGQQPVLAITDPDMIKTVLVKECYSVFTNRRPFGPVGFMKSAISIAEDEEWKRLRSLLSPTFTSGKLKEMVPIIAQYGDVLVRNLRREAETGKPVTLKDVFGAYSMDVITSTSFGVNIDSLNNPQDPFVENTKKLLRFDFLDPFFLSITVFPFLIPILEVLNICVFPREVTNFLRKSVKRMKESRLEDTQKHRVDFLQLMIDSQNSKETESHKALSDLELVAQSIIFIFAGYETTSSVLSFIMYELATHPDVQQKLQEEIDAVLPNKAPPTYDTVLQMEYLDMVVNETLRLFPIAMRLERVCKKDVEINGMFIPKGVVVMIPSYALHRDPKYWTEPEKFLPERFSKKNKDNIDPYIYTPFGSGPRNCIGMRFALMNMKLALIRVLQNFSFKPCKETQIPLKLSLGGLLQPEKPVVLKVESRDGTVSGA
T2 sequence (P33261 whole entry): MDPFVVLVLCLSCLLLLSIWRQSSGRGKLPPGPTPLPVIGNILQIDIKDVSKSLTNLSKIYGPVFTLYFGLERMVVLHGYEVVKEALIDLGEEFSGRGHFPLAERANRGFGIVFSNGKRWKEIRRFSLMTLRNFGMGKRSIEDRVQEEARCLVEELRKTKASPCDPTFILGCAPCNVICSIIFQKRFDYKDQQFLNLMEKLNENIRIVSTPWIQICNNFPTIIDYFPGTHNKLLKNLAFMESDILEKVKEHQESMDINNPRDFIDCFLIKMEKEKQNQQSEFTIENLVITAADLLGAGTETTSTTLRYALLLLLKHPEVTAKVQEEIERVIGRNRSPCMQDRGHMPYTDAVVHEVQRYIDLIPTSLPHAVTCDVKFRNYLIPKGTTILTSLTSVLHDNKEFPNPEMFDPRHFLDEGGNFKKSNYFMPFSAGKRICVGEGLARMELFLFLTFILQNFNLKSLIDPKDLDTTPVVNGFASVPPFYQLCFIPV
CYP2C9, sequence (P11712 whole entry): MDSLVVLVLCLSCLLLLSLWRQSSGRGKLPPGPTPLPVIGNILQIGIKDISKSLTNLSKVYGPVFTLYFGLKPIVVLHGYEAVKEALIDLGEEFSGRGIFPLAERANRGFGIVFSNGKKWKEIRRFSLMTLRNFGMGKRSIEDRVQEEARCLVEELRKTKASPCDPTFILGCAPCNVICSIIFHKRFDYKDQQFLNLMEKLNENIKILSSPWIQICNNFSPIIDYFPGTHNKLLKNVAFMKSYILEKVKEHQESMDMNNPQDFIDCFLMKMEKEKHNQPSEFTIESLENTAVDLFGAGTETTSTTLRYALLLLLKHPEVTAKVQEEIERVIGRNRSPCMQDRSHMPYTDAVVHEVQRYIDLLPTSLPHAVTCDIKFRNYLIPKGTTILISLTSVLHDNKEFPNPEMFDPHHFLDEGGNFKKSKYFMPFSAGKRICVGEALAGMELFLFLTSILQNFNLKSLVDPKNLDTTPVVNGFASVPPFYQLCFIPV

Row | SMILES | recovery at 15 min, 5 μM (in vitro; [3]) [%] | inhibition at 45 min, 10 μM (CYP2D6; [4]) [%] | inhibition at 30 min, 10 μM (CYP2C19; [5]) [%] | EC50 [1, 6] [µM] | inhibition at 15 min, 10 μM (CYP1A2; [7]) [%] | inhibition at 30 min, 10 μM (CYP2C9; [8]) [%] | CC50 at 3 days [2] [µM] | inhibition at 30 min, 10 μM (CYP3A4; [9]) [%] | inhibition at 30 min, 10 μM (CYP3A4; [10]) [%] | inhibition at 10 min, 10 μM (CYP3A4; [11]) [%] | recovery at 15 min, 5 μM (in vitro; human) [%] | EC50 [1, 12] [µM] | inhibition at 30 min, 10 μM (CYP2C9; pH 7.4) [%] | inhibition at 45 min, 10 μM (CYP2D6; pH 7.4, 10 μM test compound) [%] | inhibition at 30 min, 10 μM (CYP2C19; pH 7.4, 10 μM test compound) [%] | inhibition at 15 min, 10 μM (CYP1A2; pH 7.4, 10 μM test compound) [%] | inhibition at 30 min, 10 μM (CYP3A4; pH 7.4, 10 μM test compound, substrate BFC 150 μM, read-out: 3A4-BFC % inh.) [%] | inhibition at 30 min, 10 μM (CYP3A4; pH 7.4, 10 μM test compound, substrate BQ 60 μM, read-out: 3A4-BQ % inh.) [%] | inhibition at 10 min, 10 μM (CYP3A4; pH 7.4, 10 μM test compound) [%]
1 | CC(C)CN(C[C@@H](O)[C@H](Cc1ccccc1)NC(=O)OCc1cncs1)C(=O)c1cccc(Br)c1 [Compound C17] | 68 | 46 | 87 | 41.7 | 55 | 98 | 36.3 | 57 | 81 | 93 |  |  |  |  |  |  |  |  | 
2 | CC(C)CN(C[C@@H](O)[C@H](Cc1ccccc1)NC(=O)OCc1cncs1)C(=O)c1ccc(Br)cc1 [Compound C18] | 57 | 64 | 93 | 38.9 | 63 | 98 | 41.7 | 83 | 84 | 94 |  |  |  |  |  |  |  |  | 
3 | CC(C)CN(C[C@@H](O)[C@H](Cc1ccccc1)NC(=O)OCc1cccnc1)C(=O)c1ccncc1 [Compound C20] |  | 13 | 41 |  | 6 |  | > 100 | 88 | 66 | 85 | 37 | > 100 | 63 |  |  |  |  |  | 
4 | CC(C)CN(C[C@@H](O)[C@H](Cc1ccccc1)NC(=O)OCc1cncs1)C(=O)c1ccco1 [Compound C21] | 62 |  |  | > 100 |  | 95 | > 100 |  |  |  |  |  |  | 62 | 75 | 43 | 87 | 81 | 95
5 | CC(C)(C)CN(C[C@@H](O)[C@H](Cc1ccccc1)NC(=O)OCc1cncs1)C(=O)c1ccncc1 [Compound C22] |  | 62 | 60 |  | 0 |  | > 100 | 93 | 74 | 89 | 77 | > 100 | 69 |  |  |  |  |  | 
6 | CC(C)CN(C[C@@H](O)[C@H](Cc1ccccc1)NC(=O)OCc1cncs1)C(=O)C1CCC(F)(F)CC1 [Compound C23] |  | 65 | 77 |  | 22 |  | 55 | 94 | 73 | 92 | 72 | 51.3 | 89 |  |  |  |  |  | 
7 | CC(C)CN(C[C@@H](O)[C@H](Cc1ccccc1)NC(=O)OCc1cncs1)C(=O)CCc1cncs1 [Compound C24] |  | 96 | 86 |  | 13 |  | > 100 | 101 | 82 | 89 | 56 | 97.7 | 92 |  |  |  |  |  | 
8 | CC(C)CN(C[C@@H](O)[C@H](Cc1ccccc1)NC(=O)OCc1cncs1)C(=O)OCc1cncs1 [Compound C25] |  | 91 | 97 |  | 25 |  | 77.6 | 100 | 79 | 89 | 63 | 69.2 | 95 |  |  |  |  |  | 
